Test results published in US7247295B2, “Use of 1,2-decandiol for combating germs causing body odor” (DRAGOCO Gerberding & Co. AG, priority 2001, dated 2007).
In brackets after ≈: the same amount, converted by molar mass.

Assays:
Format in all cases: cell-based
[1] = system: Staphylococcus epidermidis, Corynebacterium xerosis, Brevibacterium epidermidis; assay: MIC determination, agar dilution method, summary over the three test organisms; conditions: summary of Table 4 over all three test organisms
Description: To prepare various test concentrations 2.6 ml of a 3.3% stock solution (3.3 g 1,2-decanediol or comparison substance in 100 ml ethanol (96% in H2O; Merck, Cat. no. 1.00971)) was used at the starting material in each case. Further test concentrations (diluted sample) in the form of a geometric dilution series were prepared by progressive 2:1 dilution with ethanol (96%; Merck, Cat. no. 1.00971). Determination of the antimicrobial action of 1,2-decanediol (or of a comparison substance) was carried out with the aid of the agar dilution method based on DIN 58 940/ICS and DIN 58 944/ICS. […] The inoculated plates were incubated under the conditions given in Table 3 and were then assessed. […] Minimum, barely visible growth or a few small individual colonies were assessed as inhibition. Suspensions of the microorganisms described above were incubated in accordance with the general test conditions described under 1. and the MIC values of 1,2-decanediol were determined (see Table 4). For reference purposes the MIC values for 1,2-octanediol were also determined.

[2] = system: Brevibacterium epidermidis ATCC 35514; assay: MIC determination, agar dilution method (DIN 58 940/58 944); conditions: ATCC35514, Mueller-Hinton agar, aerobic, 18 h at 36° C., pure substance
Description: (§1) To prepare various test concentrations 2.6 ml of a 3.3% stock solution (3.3 g 1,2-decanediol or comparison substance in 100 ml ethanol (96% in H2O; Merck, Cat. no. 1.00971)) was used at the starting material in each case. Further test concentrations (diluted sample) in the form of a geometric dilution series were prepared by progressive 2:1 dilution with ethanol (96%; Merck, Cat. no. 1.00971). Determination of the antimicrobial action of 1,2-decanediol (or of a comparison substance) was carried out with the aid of the agar dilution method based on DIN 58 940/ICS and DIN 58 944/ICS. Petri dishes 5.5 cm in diameter were filled with 8.7 ml freshly prepared Mueller-Hinton agar (Merck, Cat. no. 1.05437 or Wilkins-Chalgren agar boillon (sic), Oxoid, Cat. no. CM 643, supplemented with 10 g agar-agar/litre) kept liquid at 50° C., to which in each case 0.3 ml of the particular sample, that is to say 3.3% (V/V) based on the total volume of agar and sample, was added. By means of this further dilution of the undiluted stock solution and of the already diluted samples with the test agar (0.3 ml of the stock solution or of the corresponding diluted sample+8.7 ml agar) 30-fold lower end concentrations were prepared in each case (when using the stock solution an initial concentration of 1,100 ppm results). The concentrations given below are based on the pure substance and have been converted to ppm. 2 agar plates were cast per test concentration and nutrient medium. After solidification and drying (about 1 h at 37° C.), the test plates were inoculated in point form with, in each case, 1 μl of the test organism suspensions listed below. To check purity and identity, the aerobically growing bacteria Brevibacterium epidermidis, Corynebacterium xerosis; and Staphylococcus epidermidis were cultured on Columbia blood agar (BioMérieux, Cat. no. 43049). Further details on the test organisms can be taken from Table 2. [table] The preparation of the test organism suspensions of the test organisms for Brevibacterium epidermidis, Corynebacterium xerosis, and Staphylococcus epidermidis was carried out by incubation of Mueller-Hinton bouillon (Merck, Cat. no. 1.10293), which had been inoculated with a few individual colonies of the particular test organisms, at 36° C. After a distinct turbidity had been achieved, sterile nutrient bouillon was added to the suspensions in such an amount that the turbidity thereof corresponded to McFarland Standard 0.5 (approx. 10^8 CFU/ml). The inoculated plates were incubated under the conditions given in Table 3 and were then assessed. The MIC (minimum inhibitory concentration) was considered to be the lowest active compound concentration with which there is macroscopically no growth. Minimum, barely visible growth or a few small individual colonies were assessed as inhibition. [table] Suspensions of the microorganisms described above were incubated in accordance with the general test conditions described under 1. and the MIC values of 1,2-decanediol were determined (see Table 4). For reference purposes the MIC values for 1,2-octanediol were also determined.

[3] = system: Corynebacterium xerosis ATCC 7711; assay: as above; conditions: ATCC7711, Mueller-Hinton agar, aerobic, 18 h at 36° C., pure substance
Description: as §1

[4] = system: Staphylococcus epidermidis ATCC 12228; assay: as above; conditions: ATCC12228, Mueller-Hinton agar, aerobic, 18 h at 36° C., pure substance
Description: as §1

[5] = system: Corynebacterium xerosis (C. xerosis 7711); assay: Growth curve, suspension test; conditions: concentration 0.3% in AC medium; incubated 20, 60 and 180 min; compared with 1,2-octanediol and farnesol
Description: • AC medium: 37 g brain heart infusion, 5 g glucose, 1 ml Tween 80, made up to 1 l with H2O. Test Substances: • 1,2-Octanediol (0.3%) • 1,2-Decanediol (0.3%) • Farnesol (0.3%) Control: • AC medium without active compound Test Solutions: • Relevant test substance in AC medium Suspension Test (see FIG. 1) 60 ml AC medium were inoculated with 0.4 ml of a fresh overnight culture of the test organism Corynebacterium xerosis (C. xerosis 7711). The culture vessel was shaken at 30° C. and 250 rpm until a cell density of 10^5 to 10^6 cells/ml had been reached. The test substances were weighed out and in each case dissolved in 2.5 ml AC medium with brief heating to 60° C. The test solutions obtained in this way were then added to 2.5 ml bacterial suspension in each case and the mixtures were incubated for 20, 60 and 180 min maintaining the growth conditions. 100 μl of the incubated test solutions were then taken and the bacterial titre determined by plating-out on nutrient medium.

Row | MIC values (over the three test organisms) [1] | MIC [2] [µg/mL] | MIC [3] [µg/mL] | MIC [4] [µg/mL] | MIC [1] [µg/mL] | SMILES | effectiveness in growth curve (bacterial titre) [5]
1 | distinctly lower | 450 (≈ 2.58 mM) | 225 (≈ 1.29 mM) | 225 (≈ 1.29 mM) |  | CCCCCCCCC(O)CO (stereo not drawn) [1,2-Decanediol, 1,2-decanediol] | by far the greatest effectiveness of the substances tested
2 |  | 3600 (≈ 24.6 mM) | 3600 (≈ 24.6 mM) | 1800 (≈ 12.3 mM) | 1800 to 3600 (≈ 12.3 to 24.6 mM) | CCCCCCC(O)CO (stereo not drawn) [1,2-Octanediol, 1,2-octanediol, reference compound] | 
